pIC50: −log10 of the molar value. Several values for one entry are separate records, joined by “and”; a condition that tells them apart may be missing. Identical values can stand only once. Like-named read-outs stand apart in the source and are kept apart here.
Legend:
[1] = system: glioblastoma (U-87) cells; test: WST cell viability assay, U-87 MG; assay type: cell-based; settings: Homo sapiens, U-87 MG
lung cancer (A549) cells = test: WST cell viability assay, A549; assay type: cell-based; settings: Homo sapiens, A549, read-out: IC50 A549
PP2A [2] = test: PP2A activity in mouse brains after IP dosing (PP2A immunoprecipitation phosphatase assay, malachite green); assay type: in vivo, Balb/c mice; settings: brain
Procedure: (§1) Coomassie (Bradford) Protein Assay Kit (Pierce); PP2A Immunoprecipitation Phosphatase Assay Kit (Millipore); Lysate preparation for low endogenous phosphate: 20 mM imidazole-HCl, 2 mM EDTA, 2 mM EGTA, 1 mM PMSF, 1 mM benzamidine, 10 ug/ml each of aprotinin, leupeptin, antipain, soybean trypsin inhibitor; Normal Mouse IgG (Millipore); Okadaic acid (OA) (Tocris); DMSO (Sigma).
(§2) • Species: Mus Musculus • Strain: Balb/c mice • Age: 6-8 weeks • Sex: female • Body weight: 18-22 g • Vendor: Shanghai Laboratory Animal Center, Shanghai, China; • Number of animals: 66 Balb/c mice plus spare
(§3) The mice were kept in laminar flow rooms at constant temperature and humidity with 4 animals in each cage. • Temperature: 20-25 • Humidity: 40-70%. • Light cycle: 12 hours light and 12 hours dark. • Cages: Made of polycarbonate. The size is 29 cm×17.5 cm×12 cm (L×w×H). The bedding material is wood debris, which is changed once per week. • Diet: Animals had free access to irradiation sterilized dry granule food during the entire study period. • Water: Animals had free access to sterile drinking water. • Cage identification: the identification labels for each cage contained the following information: number of animals, sex, strain, date arrival, treatment, study number, group number, and the starting date of the treatment. • Animal identification: Animals were marked by ear punch.
(§4) All the procedures related to animal handling, care, and the treatment in this study were performed according to guidelines approved by the Institutional Animal Care and Use Committee (IACUC) of WuXi AppTec (Shanghai), following the guidance of the Association for Assessment and Accreditation of Laboratory Animal Care (AAALAC). At the time of routine monitoring, the animals were checked and recorded for any effects of tumor growth on normal behavior such as mobility, food and water consumption (by looking only), body weight gain/loss, eye/hair matting and any other abnormal effect.
(§5) 1. Proper amount of the compounds were weighed. 2. The compounds were dissolved in 4% sterile sodium bicarbonate. 3. All of the compounds should be well dissolved and clear. 4. The compounds should be kept cold once in solution and injected within an hour. 5. The mice were administered intraperitoneally according to their body weights, 20 g mouse was treated with 0.2 ml compound solution. 6. Mice were treated with vehicle and compounds according to Table 1. 7. 3 hours after the dose, 3 mice from each group were euthanized by
(§6) CO2 exposure, and the brains and left lobe of livers were taken and snap-frozen in liquid nitrogen immediately. 6 hours after the dose, the other 3 mice from each group were euthanized by CO2 exposure, and the brains and left lobe of livers were taken and snap-frozen in liquid nitrogen immediately.
(§7) Preparation of malachite green phosphate detection solution Added […] of Solution B to each 1 mL of Solution A, kept at room temperature during use. […] of mixed solution AB is used per assay well.
(§8) Diluted 125 mL Phosphate Standard (Solution C) with 1125 mL of distilled water to make 0.1 mM working solution. The solution was used to prepare a phosphate standard curve as described in the table below.
(§9) 1. 25 μL of each phosphate standards was transferred to wells of microliter plate. 2. Added 100 μL of Malachite Green Solution AB. Mixed carefully without creating bubbles. 3. Cultured for 15 minutes at RT. 4. Measured absorbance at a wavelength between 650 nm in a microliter plate reader.
(§10) 1. Dissolved 1 mg Threonine Phosphopeptide (Catalog #12-219) in 1.10 mL of distilled water to prepare a 1 mM solution. 2. Aliquot peptide solution and stored at ˜20° C. as necessary.
(§11) 1. Mouse brain or liver was homogenized using lysis buffer (25 g/L), centrifuged at 12000 g for 10 minutes at […], and the supernatants were collected. 2. The protein was quantitated, and 240 μg of mouse brain or liver lysate was taken to assay phosphatase activity. 3. […]

[3] = system: breast cancer (2LMP) cells; test: WST cell viability assay, 2LMP
Source text: IC50 values were obtained for cytotoxicity against breast cancer (2LMP), glioblastoma (U-87) and lung cancer (A549) cells (See Table 5 and FIGS. 3-5).

PP2A [4] = test: PP2A activity in mouse livers after IP dosing (PP2A immunoprecipitation phosphatase assay, malachite green); assay type: in vivo, Balb/c mice; settings: liver
Procedure: as §1, §2, §3, §4, §5, §6, §7, §8, §9, §10, §11

[5] = high dose IP (mpk: 100 1.5, 113 2.2, 151 1.6, 153 1.7, 157 2.0), 3 h
[6] = high dose IP (mpk: 100 1.5, 113 2.2, 151 1.6, 153 1.7, 157 2.0), 6 h
[7] = low dose IP (mpk: 100 0.75, 113 1.1, 151 0.8, 153 0.85, 157 1.0), 3 h
[8] = low dose IP (mpk: 100 0.75, 113 1.1, 151 0.8, 153 0.85, 157 1.0), 6 h
[9] = high dose IP (mpk: 100 1.5, 113 2.2, 151 1.6, 157 2.0), 3 h
[10] = high dose IP (mpk: 100 1.5, 113 2.2, 151 1.6, 157 2.0), 6 h

CN1CCN(C(=O)C2C3CCC(O3)C2C(=O)O)CC1 (stereo not shown) [Compound 100, 3-(4-methylpiperazine-1-carbonyl)-7-oxa-bicyclo[2,2,1]-heptane-2-carboxylic acid]
pIC50 ([1]; read-out: IC50 U-87 MG, WST-20131017 (first value of the cell)): 4.70
pIC50 ([1]; read-out: IC50 U-87 MG, WST-20131024 (second value of the cell)): 4.60
pIC50 (lung cancer (A549) cells): 4.99
Average Conc. (group of 3 mice) (PP2A [2]; [5]): 1176.58
Average Relative Activity (group, vehicle = 100) (PP2A [2]; [5]): 80.09
Conc. (phosphate, single reading, per mouse) (PP2A [2]; [5]): 1090.16 and 1146.07 and 1273.56 and 1349.24 and 1116.43 and 1122.21
Mean Conc. (per mouse) (PP2A [2]; [5]): 1118.11 and 1311.40 and 1119.32
Mean Conc. less IgG blank (per mouse) (PP2A [2]; [5]): 1111.75 and 1305.03 and 1112.95
Relative Conc. (per mouse, to vehicle) (PP2A [2]; [5]): 0.77 (2×) and 0.90
Relative PP2A Activity (per mouse, vehicle = 100) (PP2A [2]; [5]): 75.68 and 88.84 and 75.76
Average Conc. (group of 3 mice) (PP2A [2]; [6]): 1430.23
Average Relative Activity (group, vehicle = 100) (PP2A [2]; [6]): 102.54
Conc. (phosphate, single reading, per mouse) (PP2A [2]; [6]): 1524.93 and 1576.74 and 1180.05 and 1223.91 and 1496.73 and 1617.23
Mean Conc. (per mouse) (PP2A [2]; [6]): 1550.84 and 1201.98 and 1556.98
Mean Conc. less IgG blank (per mouse) (PP2A [2]; [6]): 1544.47 and 1195.62 and 1550.62
Relative Conc. (per mouse, to vehicle) (PP2A [2]; [6]): 1.12 (2×) and 0.87
Relative PP2A Activity (per mouse, vehicle = 100) (PP2A [2]; [6]): 110.73 and 85.72 and 111.17
Average Conc. (group of 3 mice) (PP2A [2]; [7]): 1143.44
Average Relative Activity (group, vehicle = 100) (PP2A [2]; [7]): 77.84
Conc. (phosphate, single reading, per mouse) (PP2A [2]; [7]): 1131.61 and 1148.72 and 982.91 and 1046.54 and 1270.67 and 1318.39
Mean Conc. (per mouse) (PP2A [2]; [7]): 1140.17 and 1014.72 and 1294.53
Mean Conc. less IgG blank (per mouse) (PP2A [2]; [7]): 1133.80 and 1008.36 and 1288.16
Relative Conc. (per mouse, to vehicle) (PP2A [2]; [7]): 0.78 and 0.69 and 0.89
Relative PP2A Activity (per mouse, vehicle = 100) (PP2A [2]; [7]): 77.18 and 68.64 and 87.69
Average Conc. (group of 3 mice) (PP2A [2]; [8]): 1009.84
Average Relative Activity (group, vehicle = 100) (PP2A [2]; [8]): 72.40
Conc. (phosphate, single reading, per mouse) (PP2A [2]; [8]): 996.89 and 1024.12 and 978.81 and 1073.53 and 990.38 and 1033.52
Mean Conc. (per mouse) (PP2A [2]; [8]): 1010.51 and 1026.17 and 1011.95
Mean Conc. less IgG blank (per mouse) (PP2A [2]; [8]): 1004.14 and 1019.81 and 1005.59
Relative Conc. (per mouse, to vehicle) (PP2A [2]; [8]): 0.73 (2×) and 0.74
Relative PP2A Activity (per mouse, vehicle = 100) (PP2A [2]; [8]): 71.99 and 73.11 and 72.09
pIC50 ([3]; read-out: IC50 2LMP, WST-20131015 (first value of the cell)): 5.47
pIC50 ([3]; read-out: IC50 2LMP, WST-20131025 (second value of the cell)): 5.16
Average Conc. (group of 3 mice) (PP2A [4]; [9]): 290.15
Average Relative Activity (group, vehicle = 100) (PP2A [4]; [9]): 73.9
Conc. (phosphate, single reading, per mouse) (PP2A [4]; [9]): 340.38 and 353.99 and 282.08 and 493.05 and 279.92 and 293.74
Mean Conc. (per mouse) (PP2A [4]; [9]): 347.18 and 387.56 and 286.83
Mean Conc. less IgG blank (per mouse) (PP2A [4]; [9]): 296.81 and 337.19 and 236.46
Relative Conc. (per mouse, to vehicle) (PP2A [4]; [9]): 0.76 and 0.86 and 0.6
Relative PP2A Activity (per mouse, vehicle = 100) (PP2A [4]; [9]): 75.64 and 85.93 and 60.26
Average Conc. (group of 3 mice) (PP2A [4]; [10]): 197.91
Average Relative Activity (group, vehicle = 100) (PP2A [4]; [10]): 50.5
Conc. (phosphate, single reading, per mouse) (PP2A [4]; [10]): 154.46 and 167.2 and 290.5 and 323.97 and 262.21 and 291.36
Mean Conc. (per mouse) (PP2A [4]; [10]): 160.83 and 307.23 and 276.79
Mean Conc. less IgG blank (per mouse) (PP2A [4]; [10]): 110.45 and 256.86 and 226.41
Relative Conc. (per mouse, to vehicle) (PP2A [4]; [10]): 0.28 and 0.66 and 0.58
Relative PP2A Activity (per mouse, vehicle = 100) (PP2A [4]; [10]): 28.21 and 65.59 and 57.82
Average Conc. (group of 3 mice) (PP2A [4]; [7]): 289.29
Average Relative Activity (group, vehicle = 100) (PP2A [4]; [7]): 73.7
Conc. (phosphate, single reading, per mouse) (PP2A [4]; [7]): 292.01 and 308.85 and 318.57 and 329.58 and 359.6 and 429.35
Mean Conc. (per mouse) (PP2A [4]; [7]): 300.43 and 324.08 and 394.47
Mean Conc. less IgG blank (per mouse) (PP2A [4]; [7]): 250.06 and 273.7 and 344.1
Relative Conc. (per mouse, to vehicle) (PP2A [4]; [7]): 0.64 and 0.7 and 0.88
Relative PP2A Activity (per mouse, vehicle = 100) (PP2A [4]; [7]): 63.73 and 69.75 and 87.69
Average Conc. (group of 3 mice) (PP2A [4]; [8]): 316.5
Average Relative Activity (group, vehicle = 100) (PP2A [4]; [8]): 80.8
Conc. (phosphate, single reading, per mouse) (PP2A [4]; [8]): 391.13 and 414.88 and 358.3 and 359.17 and 328.94 and 348.8
Mean Conc. (per mouse) (PP2A [4]; [8]): 403 and 358.74 and 338.87
Mean Conc. less IgG blank (per mouse) (PP2A [4]; [8]): 352.63 and 308.36 and 288.5
Relative Conc. (per mouse, to vehicle) (PP2A [4]; [8]): 0.9 and 0.79 and 0.74
Relative PP2A Activity (per mouse, vehicle = 100) (PP2A [4]; [8]): 90.05 and 78.74 and 73.67

Source: patent US20160264593A1 (priority 2013, published 2016)
